In patent publication US20070202158A1, “Methods Of Administering Water-Soluble Prodrugs Of Propofol For Extended Sedation” (MGI GP, Inc., priority 2003, published 2007):

Tests used:
[1] = tested on: Sprague-Dawley rats; assay: Behavioral sedation rating (scale 0-4) in rats after oral, intravenous or intraduodenal prodrug; format: in vivo, rat
Text: This example compares the dose-dependent pharmacological effects of a propofol prodrug of Formula I, O-phosphonooxymethyl propofol disodium salt, on rats when administered in a single oral dose to the pharmacological effects observed after an equipotent intravenous infusion. Young adult male Sprague-Dawley rats (250-300 g, Charles River Laboratories) received oral doses of vehicle (0.12% Tris/0.25% monothioglycerol/saline; n=4, per oral gavage) or of O-phosphonooxy-methyl propofol disodium salt at doses of 100, 200, 300 and 400 mg/kg, dissolved in vehicle at 35 mg/ml (n=2 per dose) or 200 mg/ml w/v (n=2 per dose).
The above-described pharmacological effects of oral administration of the tested prodrug were compared with those caused by an equipotent intravenous infusion: Under halothane anesthesia, young adult rats received femoral vein catheters which were exteriorized and attached to a liquid swivel via a protectant spring. About 20 minutes after catheterization, and after full behavioral recovery from halothane anesthesia, each animal was attached to an electronic infusion pump and was administered vehicle, or 5, 10, 20, 30, or 40 mg/kg of the test prodrug (n=2 per dose) in 1 ml total volume by gradual constant-rate intravenous infusion over 10 minutes. Behavioral rating as described above began immediately following the end of infusion.
The above-described efficacy of the tested prodrug when administered orally or intravenously was compared to a mode of administration that allows for the introduction of the prodrug directly into the gut. For this “gastric bypass” experiment, young adult male Sprague Dawley rats (225-250 g body wt.) underwent implantation of intraduodenal catheters to allow for intraduodenal instillation of an aqueous buffered solution of the prodrug. Following full recovery from catheter implantation surgery, various concentrations of O-phosphonooxymethyl propofol disodium salt in vehicle, or vehicle alone, were administered via the catheter in a constant volume of 2 ml/kg body weight to yield doses of 0, 20, 30, 50, 100, 200, 300, and 400 mg/kg body weight (n=2 per dose). Behavioral assessment was conducted as described above. […] The depth and duration of sedation, and the length of unconsciousness in the higher dose groups, depended on the administered dose.

[2] = Crossover study of plasma bioavailability of propofol in human volunteers after oral or intraduodenal prodrug (Table II); format: in vivo; conditions: for Blood plasma concentration of propofol, Mean / Blood plasma concentration of propofol, Median: human volunteers
Text: Blood plasma samples were drawn at various time points post administration and frozen until chromatographic analysis of propofol concentrations. Plasma propofol concentrations at various time points after administration are given for both routes of administration in Table II, below: […]

[3] = ID (intraduodenal) 400 mg, 0.0 hr
[4] = ID (intraduodenal) 400 mg, 0.08 hr
[5] = ID (intraduodenal) 400 mg, 0.17 hr
[6] = ID (intraduodenal) 400 mg, 0.33 hr
[7] = ID (intraduodenal) 400 mg, 0.50 hr
[8] = ID (intraduodenal) 400 mg, 0.75 hr
[9] = ID (intraduodenal) 400 mg, 1.0 hr
[10] = ID (intraduodenal) 400 mg, 1.5 hr
[11] = ID (intraduodenal) 400 mg, 2.0 hr
[12] = ID (intraduodenal) 400 mg, 4.0 hr
[13] = ID (intraduodenal) 400 mg, 6.0 hr
[14] = ID (intraduodenal) 400 mg, 9.0 hr

In the case of `CC(C)c1cccc(C(C)C)c1OCOP(=O)([O-])[O-].[Na+].[Na+]` [O-phosphonooxymethyl propofol disodium salt], the “biological potency of the peak effect, oral/intragastric relative to intravenous administration” value [1] is reported as “approximately 10%”, the “intraduodenal dose causing a pharmacological effect substantially similar to 40 mg/kg intravenous” value ([1]; FIG. 3 vs 4) is reported as 50 mg/kg and the “intraduodenal dose causing a pharmacological effect substantially similar to 400 mg/kg intragastrally” value ([1]; FIGS. 1, 2 vs 4) is reported as 100 mg/kg. The “intraduodenal dose expected to cause an effect substantially similar to IV 20-30 mg/kg” value ([1]; extrapolated from FIGS. 1-4) was “about 40 mg/kg”, the “onset of sedative effect” value ([1]; intraduodenal 20-400 mg/kg) was “Within five minutes” and the “behavioral effect following onset of sedation” value ([1]; intraduodenal, higher dose groups) was “loss of consciousness in the higher dose groups”. For the same compound, the behavioral effect ([1]; intravenous infusion 5-40 mg/kg over 10 minutes) was “rapid-onset dose-dependent sedated/anesthetized state”, the “duration of sedated/anesthetized state” value ([1]; intravenous vs oral administration) was “shorter durations as compared to oral administration” and the “oral bioavailability (conclusion of study)” value ([1]; oral) was “orally bioavaliable”. For the same compound, the “behavioral effect compared to vehicle” value ([1]; oral 100-200 mg/kg) was “mild to moderate sedation”, the “duration of mild to moderate sedation” value ([1]; oral 100-200 mg/kg, printed 'and longer') was 1 to 2 h and the “behavioral effect following onset of sedation” value ([1]; oral 300 and 400 mg/kg dose groups) was “loss of consciousness”. The “onset of sedated behavior after dosing” value ([1]; oral gavage 100-400 mg/kg) was 5 to 10 min, the “duration of loss of consciousness” value ([1]; oral, highest dose group) was “up to 1 hour” and the “onset of sedated behavior after oral gavage” value ([1]; oral/intragastric, 35 mg/ml w/v aqueous solution, FIG. 1) was 5 to 20 min. The “Blood plasma concentration of propofol, Mean” value [2, 3] was 0.0 ng/mL, the “Blood plasma concentration of propofol, Median” value [2, 3] was 0.0 ng/mL and the “Blood plasma concentration of propofol, Mean” value [2, 4] was 194.1 ng/mL. For the same compound, the “Blood plasma concentration of propofol, Median” value [2, 4] was 144.5 ng/mL, the “Blood plasma concentration of propofol, Mean” value [2, 5] was 247.6 ng/mL and the “Blood plasma concentration of propofol, Median” value [2, 5] was 210.9 ng/mL. The “Blood plasma concentration of propofol, Mean” value [2, 6] was 272.0 ng/mL, the “Blood plasma concentration of propofol, Median” value [2, 6] was 277.3 ng/mL and the “Blood plasma concentration of propofol, Mean” value [2, 7] was 178.6 ng/mL. The “Blood plasma concentration of propofol, Median” value [2, 7] was 211.3 ng/mL, the “Blood plasma concentration of propofol, Mean” value [2, 8] was 76.5 ng/mL and the “Blood plasma concentration of propofol, Median” value [2, 8] was 52.3 ng/mL. For the same compound, the “Blood plasma concentration of propofol, Mean” value [2, 9] was 47.7 ng/mL, the “Blood plasma concentration of propofol, Median” value [2, 9] was 45.3 ng/mL and the “Blood plasma concentration of propofol, Mean” value [2, 10] was 25.4 ng/mL. The “Blood plasma concentration of propofol, Median” value [2, 10] was 24.7 ng/mL, the “Blood plasma concentration of propofol, Mean” value [2, 11] was 16.4 ng/mL and the “Blood plasma concentration of propofol, Median” value [2, 11] was 14.2 ng/mL. For the same compound, the “Blood plasma concentration of propofol, Mean” value [2, 12] was 5.0 ng/mL, the “Blood plasma concentration of propofol, Median” value [2, 12] was 5.6 ng/mL and the “Blood plasma concentration of propofol, Mean” value [2, 13] was 0.0 ng/mL. The “Blood plasma concentration of propofol, Median” value [2, 13] was 0.0 ng/mL, the “Blood plasma concentration of propofol, Mean” value [2, 14] was 0.0 ng/mL and the “Blood plasma concentration of propofol, Median” value [2, 14] was 0.0 ng/mL. The “Blood plasma concentration of propofol, Mean” value ([2]; Oral 400 mg, 0.0 hr) was 0.0 ng/mL, the “Blood plasma concentration of propofol, Median” value ([2]; Oral 400 mg, 0.0 hr) was 0.0 ng/mL and the “Blood plasma concentration of propofol, Mean” value ([2]; Oral 400 mg, 0.08 hr) was 6.6 ng/mL. The “Blood plasma concentration of propofol, Median” value ([2]; Oral 400 mg, 0.08 hr) was 0.0 ng/mL, the “Blood plasma concentration of propofol, Mean” value ([2]; Oral 400 mg, 0.17 hr) was 103.9 ng/mL and the “Blood plasma concentration of propofol, Median” value ([2]; Oral 400 mg, 0.17 hr) was 43.6 ng/mL. For the same compound, the “Blood plasma concentration of propofol, Mean” value ([2]; Oral 400 mg, 0.33 hr) was 197.2 ng/mL, the “Blood plasma concentration of propofol, Median” value ([2]; Oral 400 mg, 0.33 hr) was 153.6 ng/mL and the “Blood plasma concentration of propofol, Mean” value ([2]; Oral 400 mg, 0.50 hr) was 144.1 ng/mL. The “Blood plasma concentration of propofol, Median” value ([2]; Oral 400 mg, 0.50 hr) was 151.4 ng/mL, the “Blood plasma concentration of propofol, Mean” value ([2]; Oral 400 mg, 0.75 hr) was 75.0 ng/mL and the “Blood plasma concentration of propofol, Median” value ([2]; Oral 400 mg, 0.75 hr) was 71.1 ng/mL. The “Blood plasma concentration of propofol, Mean” value ([2]; Oral 400 mg, 1.0 hr) was 53.2 ng/mL, the “Blood plasma concentration of propofol, Median” value ([2]; Oral 400 mg, 1.0 hr) was 37.6 ng/mL and the “Blood plasma concentration of propofol, Mean” value ([2]; Oral 400 mg, 1.5 hr) was 32.3 ng/mL. For the same compound, the “Blood plasma concentration of propofol, Median” value ([2]; Oral 400 mg, 1.5 hr) was 22.8 ng/mL, the “Blood plasma concentration of propofol, Mean” value ([2]; Oral 400 mg, 2.0 hr) was 19.0 ng/mL and the “Blood plasma concentration of propofol, Median” value ([2]; Oral 400 mg, 2.0 hr) was 18.8 ng/mL. The “Blood plasma concentration of propofol, Mean” value ([2]; Oral 400 mg, 4.0 hr) was 6.2 ng/mL, the “Blood plasma concentration of propofol, Median” value ([2]; Oral 400 mg, 4.0 hr) was 6.6 ng/mL and the “Blood plasma concentration of propofol, Mean” value ([2]; Oral 400 mg, 6.0 hr) was 0.9 ng/mL. The “Blood plasma concentration of propofol, Median” value ([2]; Oral 400 mg, 6.0 hr) was 0.0 ng/mL, the “Blood plasma concentration of propofol, Mean” value ([2]; Oral 400 mg, 9.0 hr) was 0.9 ng/mL and the “Blood plasma concentration of propofol, Median” value ([2]; Oral 400 mg, 9.0 hr) was 0.0 ng/mL. The “plasma propofol after intraduodenal instillation compared to oral (in words)” value ([2]; intraduodenal 400 mg, human subjects) was “appreciably higher levels, and at earlier timepoints”, the “plasma propofol after oral administration (in words)” value ([2]; oral 400 mg, human subjects) was “appreciable plasma concentrations of propofol” and the “plasma propofol concentrations above the upper limit of quantification” value ([2]; some values from four of the subjects, second, third and fourth timepoints, 400 mg) was greater than 400 ng/mL.
